pEC50: −log10 of the molar value.

In general, pEC50 refers to the EC50 on a negative log10 scale, so that one unit is a factor of ten. A higher pEC50 goes with a small EC50.

The assay deals with T1, human GPR40 (Homo sapiens, UniProt O14842).
T1 construct: host or cells: CHO cells
T1 sequence (O14842 whole entry): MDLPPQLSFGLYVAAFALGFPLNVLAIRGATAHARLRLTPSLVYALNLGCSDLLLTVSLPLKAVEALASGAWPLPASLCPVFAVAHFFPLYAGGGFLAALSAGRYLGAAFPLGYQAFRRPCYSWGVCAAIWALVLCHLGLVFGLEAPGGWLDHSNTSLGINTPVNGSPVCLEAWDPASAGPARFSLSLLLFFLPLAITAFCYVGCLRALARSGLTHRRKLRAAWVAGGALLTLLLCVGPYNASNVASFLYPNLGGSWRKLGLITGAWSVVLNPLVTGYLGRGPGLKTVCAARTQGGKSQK
Nature of the assay: Cell-based aequorin assay using human GPR40. The note with it: activation of human GPR40; CHO cells stably transfected with GPR40 and Aequorin; 0.01% HSA; aequorin luminescence. Here is the method:
Cell-based aequorin assays were employed to characterize the modulatory activity of compounds on the GPR40 signaling pathway. In an exemplary assay, CHO cells were stably transfected with both GPR40 and Aequorin (Euroscreen). Cells were detached from the tissue culture dish with 2 mL of trypsin (0.25% (w/v)). Trypsinization was halted with 28 mL of Hanks Buffered Salt Solution containing 20 mM Hepes (H/HBSS) and 0.01% fatty acid-free human serum albumin (HSA). Coelantrazine is added to 1 ug/mL, and the cells were incubated for 2 hours at room temperature. Compounds were dissolved in DMSO for preparation of 10 mM stock solutions. Compounds were diluted in H/HBSS containing 0.01% HSA. Serial dilutions of the test compounds were prepared to determine dose response.
Aequorin luminescence measurements were made using an EG&G Berthold 96-well luminometer, and the response was measured over a 20 second interval after cells and compounds were mixed. The maximum relative light units was plotted to determine dose response. The EC50 (effective concentration to reach 50% maximal response) was determined from the dose response plot.
Table 1 presents representative data (EC50 values) obtained for exemplary compounds of the invention for the activation of human GPR40. […]
For `O=C(O)C[C@@H](c1ccc(OCc2cccc(NC(=O)c3ccc(C(F)(F)F)cc3)c2)cc1)c1ccon1` [Example 27, (S)-3-(4-(3-(4-(Trifluoromethyl)benzamido)benzyloxy)phenyl)-3-(isoxazol-3-yl)propanoic acid], the negative logarithm of the EC50 (pEC50) was 6.00 to 7.00.
The result for `Cc1ccc(-c2ccc(COc3ccc([C@H](CC(=O)O)c4ccon4)cc3)s2)cc1` [Example 13, (S)-3-(Isoxazol-3-yl)-3-(4-((5-p-tolylthiophen-2-yl)methoxy)phenyl)propanoic acid] reads 7.00 to 8.00; that for `O=C(O)C[C@@H](c1ccc(OCc2noc(-c3cccc(C(F)(F)F)c3)n2)cc1)c1ccon1` [Example 66], 5.00 to 6.00.
`O=C(O)C[C@@H](c1ccc(OCc2nc(-c3c(Cl)cccc3Cl)no2)cc1)c1ccon1` [Example 71]: the negative-log EC50 (pEC50) was 5.00 to 6.00.
`Cc1nc(-c2ccc(CCCO)cc2)sc1COc1ccc([C@H](CC(=O)O)c2ccon2)cc1` [Example 55, (S)-3-(4-((2-(4-(3-Hydroxypropyl)phenyl)-4-methylthiazol-5-yl)methoxy)phenyl)-3-(isoxazol-3-yl)propanoic acid] showed a negative logarithm of the EC50 (pEC50) of 5.00 to 6.00.
Consider `CC1(C)CCC(C)(C)c2cc(COc3ccc(C(CC(=O)O)C4=NOCC4)cc3)ccc21` (stereo not drawn) [Example 42, 3-(4,5-Dihydroisoxazol-3-yl)-3-(4-((5,5,8,8-tetramethyl-5,6,7,8-tetrahydronaphthalen-2-yl)methoxy)phenyl)propanoic acid], for which the pEC50 is 6.00 to 7.00.
`O=C(O)C[C@@H](c1ccc(OCCOc2ccc(C(F)(F)F)cc2)cc1)c1ccon1` [Example 47, (S)-3-(Isoxazol-3-yl)-3-(4-(2-(4-(trifluoromethyl)phenoxy)ethoxy)phenyl)propanoic acid] had a pEC50 of 6.00 to 7.00.
In turn, `Cc1ccc(-c2nc(C)c(COc3ccc([C@H](CC(=O)O)c4ccon4)cc3)s2)cc1` [Example 58, (S)-3-(Isoxazol-3-yl)-3-(4-((4-methyl-2-(4-methylphenyl)thiazol-5-yl)methoxy)phenyl)propanoic acid] showed a pEC50 of 7.00 to 8.00.
For `Cc1oc(-c2ccc(C(F)(F)F)cc2)nc1COc1ccc([C@H](CC(=O)O)c2ccon2)cc1` [Example 50, (S)-3-(Isoxazol-3-yl)-3-(4-((5-methyl-2-(4-(trifluoromethyl)phenyl)oxazol-4-yl)methoxy)phenyl)propanoic acid], the negative logarithm of the EC50 (pEC50) was 6.00 to 7.00.
The result for `CC(C)(C)OC(=O)N1CC=C(c2cccc(COc3ccc([C@H](CC(=O)O)c4ccon4)cc3)c2)CC1` [Example 34, (S)-3-(4-(3-(1-(Tert-butoxycarbonyl)-1,2,3,6-tetrahydropyridin-4-yl)benzyloxy)phenyl)-3-(isoxazol-3-yl)propanoic acid] reads 5.00 to 6.00; that for `O=C(O)C[C@@H](c1ccc(OCc2ccc(OC(F)(F)F)c(OC(F)(F)F)c2)cc1)c1ccon1` [Example 22, (S)-3-(4-(3,4-Bis(trifluoromethoxy)benzyloxy)phenyl)-3-(isoxazol-3-yl)propanoic acid], 7.00 to 8.00; that for `CCCOc1c(C)cc(-c2nc(C)c(COc3ccc([C@H](CC(=O)O)c4ccon4)cc3)s2)cc1C` [Example 80], 7.00 to 8.00.
Turning to `Cc1oc(-c2ccc(C(F)(F)F)cc2)cc1COc1ccc([C@H](CC(=O)O)c2ccon2)cc1` [Example 52, (S)-3-(Isoxazol-3-yl)-3-(4-((2-methyl-5-(4-(trifluoromethyl)phenyl)furan-3-yl)methoxy)phenyl)propanoic acid], the negative-log EC50 (pEC50) was 7.00 to 8.00.
In the case of `O=C(O)C[C@@H](c1ccc(OCc2cccc(NS(=O)(=O)c3ccc(C(F)(F)F)cc3)c2)cc1)c1ccon1` [Example 32, (S)-3-(4-(3-(4-Trifluoromethylphenylsulfonamido)benzyloxy)-phenyl)-3-(isoxazol-3-yl)propanoic acid], the pEC50 was 6.00 to 7.00.
The result for `Cc1ccc(-c2nc(C)c(COc3ccc([C@H](CC(=O)O)C4=NOCC4)cc3)s2)cc1` [Example 10, (S)-3-(Dihydroisoxazol-3-yl)-3-(4-((4-methyl-2-(4-methylphenyl)thiazol-5-yl)methoxy)phenyl)propanoic acid] reads 6.00 to 7.00; that for `CCCCc1ccc(-c2nc(C)c(COc3ccc([C@H](CC(=O)O)C4=NOCC4)cc3)s2)cc1` [Example 14, (S)-3-(4-((2-(4-Butylphenyl)-4-methylthiazol-5-yl)methoxy)phenyl)-3-(4,5-dihydroisoxazol-3-yl)propanoic acid], 7.00 to 8.00.
For the molecule `O=C(O)C[C@@H](c1ccc(OCc2nc(-c3ccccc3)no2)cc1)c1ccon1` [Example 67], the pEC50 is 5.00 to 6.00.
In turn, `Cc1nc(-c2ccc(Cl)cc2)sc1COc1ccc([C@H](CC(=O)O)c2ccon2)cc1` [Example 57, (S)-3-(Isoxazol-3-yl)-3-(4-((4-methyl-2-(4-chlorophenyl)thiazol-5-yl)methoxy)phenyl)propanoic acid] showed a negative-log EC50 (pEC50) of 7.00 to 8.00.
Turning to `CC1(C)CCC=C1c1ccc(COc2ccc([C@H](CC(=O)O)c3ccon3)cc2)cc1OC(F)(F)F` [Example 36, (S)-3-(4-(4-(5,5-Dimethylcyclopent-1-enyl)-3-(trifluoromethoxy)benzyloxy)phenyl)-3-(isoxazol-3-yl)propanoic acid], the negative logarithm of the EC50 (pEC50) was 6.00 to 7.00.
With `O=C(O)C[C@@H](c1ccc(OCc2nc(-c3ccc(OCc4ccc(Cl)cc4)cc3)no2)cc1)c1ccon1` [Example 12, (S)-3-(4-((3-(4-(4-Chlorobenzyloxy)phenyl)-1,2,4-oxadiazol-5-yl)methoxy)phenyl)-3-(isoxazol-3-yl)propanoic acid], the pEC50 is 6.00 to 7.00.
The result for `CCCCOc1ccc(-c2nc(C)c(COc3ccc([C@H](CC(=O)O)c4ccon4)cc3)s2)cc1Cl` [Example 79] reads 7.00 to 8.00.
Molecule `CCOc1cc(Cl)ccc1-c1ccc(COc2ccc([C@H](CC(=O)O)c3ccon3)cc2)cc1` [Example 4, (S)-3-(4-(4-(4-Chloro-2-ethoxyphenyl)benzyloxy)phenyl)-3-(isoxazol-3-yl)propanoic acid] showed a negative logarithm of the EC50 (pEC50) of 7.00 to 8.00.
In the case of `O=C(O)C[C@@H](c1ccc(OCc2cccc(-c3ccc(C(F)(F)F)cc3)c2)cc1)c1ccon1` [Example 2, (S)-3-(4-(3-(4-(Trifluoromethyl)phenyl)benzyloxy)phenyl)-3-(isoxazol-3-yl)propanoic acid], the negative logarithm of the EC50 (pEC50) is 7.00 to 8.00.
In the case of `Cc1ccc(COc2ccc([C@H](CC(=O)O)c3ccon3)cc2)cc1-c1ccc(CC(C)C)cc1` [Example 17, (S)-3-(4-(3-(4-Isobutyl)-phenyl-4-methylbenzyloxy)phenyl)-3-(isoxazol-3-yl)propanoic acid], the negative-log EC50 (pEC50) is 6.00 to 7.00.
The result for `CCCCc1ccc(-c2cc(COc3ccc([C@H](CC(=O)O)c4ccon4)cc3)ccc2C)cc1` [Example 18, (S)-3-(4-(3-(4-Butyl)-phenyl-4-methylbenzyloxy)phenyl)-3-(isoxazol-3-yl)propanoic acid] reads 6.00 to 7.00.
Consider `Cc1nc(-c2ccc(C(F)(F)F)cc2)sc1COc1ccc([C@@H](CC(=O)O)c2ccon2)cc1` [Example 6, (R)-3-(Isoxazol-3-yl)-3-(4-((4-methyl-2-(4-(trifluoromethyl)phenyl)thiazol-5-yl)methoxy)phenyl)propanoic acid], for which the pEC50 was 6.00 to 7.00.
With `C=C(C)c1ccc(COc2ccc([C@H](CC(=O)O)c3ccon3)cc2)cc1OC(F)(F)F` [Example 35, (S)-3-(4-(4-(Prop-1-en-2-yl)-3-(trifluoromethoxy)benzyloxy)-phenyl)-3-(isoxazol-3-yl)propanoic acid], the pEC50 was 7.00 to 8.00.

For the origin of these results see patent US8003648B2, “Heterocyclic GPR40 modulators” (Amgen Inc., priority 2006, dated 2011).
